Data taken from patent US9926304B2, “1-(arylmethyl)quinazoline-2,4(1H,3H)-diones as PARP inhibitors and the use thereof” (Impact Therapeutics, Inc., priority 2011, dated 2018).

Tests used:
[1] = system: SW620 human colorectal cancer cells; assay: MTT based cell viability assay: potentiation of the growth inhibiting activity of MMS; details: Homo sapiens, SW-620, 120 h, read-out: IC50 (nM), potentiation of the growth inhibiting activity of MMS, SW620 cells, 1.7 μg/ml MMS, 5 days (120 hours), MTT
Description: Briefly, SW620 human colorectal cancer cells were used to measure the cell growth inhibiting activity of DNA alkylating anticancer drug MMS. […] SW620 cells were grown and maintained in RPMI1640 (Gibco) medium supplemented with 10% FBS (Hyclone). In the first day of experiment, 4000 cells were seeded to each well of a 96-well cell culture plate and incubated at 37° C. and 5% CO2 in a cell culture incubator overnight. In the next day, the cell culture medium was removed. […] The serial dilutions of the reference compounds and the compounds to be tested were made with a 1:3 and 1:10 fashion in DMSO. The 10-fold concentrated solutions of these compounds were made by mixing 10 μl of the serial dilutions in DMSO with 90 μl fresh medium. The final concentration of DMSO in the medium was 1%. The cells were incubated at 37° C. in 5% CO2 cell culture incubator for additional 5 days (120 hours). Afterwards, the 96-well cell culture plate was taken out and 20 μl of MTT solution was added to each well and incubated at 37° C. for 4 h. The medium was removed and 100 μl DMSO was added to each well. The 96-well cell culture plates were shaked adequately for 10 min and read in a Varioskan Flash plate reader (Thermo Fisher Scientific) at 520 and 690 nm. The data were analyzed by Prism 5 software (GraphPad). The obtained 520 nm absorbance readings subtracting corresponding 690 nm reading were analyzed and plotted against the Log scale of the compound concentrations.

[2] = system: Human breast cancer cell line T47D; assay: Cell based caspase-3 activity assay: potentiation of MMS induced apoptosis; details: Homo sapiens, T47D, 24 h, T47D cells, 11.1 μg/ml MMS, 24 hours, intracellular caspase-3 activity; read-out: EC50 (nM), potentiation of the apoptosis inducing activity of MMS
In short: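 T47D cells were exposed for 24 h to compound plus a minimally apoptotic MMS dose (medium containing 11.1 μg/ml MMS). Lysates were incubated 3 h at 37 °C with (Ac-DEVD)2-R110 caspase-3 substrate (20 μM in added buffer) and read at ex 496/em 520 nm. EC50 came from a sigmoidal fit of RFU versus log concentration.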

[3] = system: BRCA-2 deficient CAPAN-1 human pancreatic cancer cells; assay: MTT based cell viability assay: growth inhibition of BRCA-2 deficient CAPAN-1 cells; details: 240 h, compound alone, 10 day assay
Description: Determination of the cell growth inhibiting activity of 1-(3-(4-(pyrimidin-2-yl)piperazine-1-carbonyl)benzyl)quinazoline-2,4(1H,3H)-dione and analogs on BRCA-2 deficient CAPAN-1 pancreatic duck cancer cells using a MTT based cell viability assay
BRCA-deficient cancer cells are sensitive to PARP inhibition. In the presence of PARP inhibitors, BRCA-deficient cancer cells could not grow and eventually will lead to death of cells. BRCA-2 deficient CAPAN-1 human pancreatic cancer cells were used to test the growth inhibiting activity of substituted 1-(arylmethyl)quinazoline-2,4(1H,3H)-diones. Briefly, CAPAN-1 cells are grown and maintained in IMEM medium supplemented with 20% FBS. The assay takes 10 days to finish. On day 1, 6000 CAPAN-1 cells are seeded to each well of a 96-well plate. The cells are incubated at 37° C. in a cell culture incubator overnight. In the next day, serial dilutions of compounds to be tested and reference compound (AZD2281) were prepared with a 1:3 and 1:10 fashion in DMSO. Ten-fold compound solutions were made by mixing 10 μl DMSO serial dilution solutions with 90 μl fresh growth medium. The cell culture medium was removed and 180 μl fresh media with FBS and 20 μl of compound solutions were added to each well. The final concentration of DMSO was 1%. Cells were then returned to the CO2 cell culture incubator and incubated at 37° C. for two days (day 3 and day 4). On day 5, the same procedure as what was done on day 2 was repeated. Cell culture medium was removed and fresh medium containing serial dilutions of compounds or reference compounds were added. Cells were returned to the CO2 cell culture incubator and incubated for two more days. On day 8, same procedure was repeated again and fresh medium containing the testing compounds or reference compounds were added and incubated for an additional 2 days. On day 10, 20 μl of MTT reagent (5 mg/ml) was added to each well of the cell culture plate and incubated for 4 h. The cell culture media was removed and 100 μl DMSO was added to each well. The 96-well cell culture plates were shaked horizontally for 10 min and readed in a Varioskan Flash plate reader (Thermo Fisher Scientific) at 520 and 690 nm. The obtained 520 nm absorbance readings subtracting corresponding 690 nm reading were analyzed using a commercial graphic software (GraphPad Prism 5) and plotted against the Log scale of the compound concentrations.

| SMILES | IC50 [1] [nM] | EC50 [2] [nM] | IC50 [3] [nM] |
| --- | --- | --- | --- |
| O=C(c1ccc(Br)cc1)N1CCN(C(=O)c2cccc(Cn3c(=O)[nH]c(=O)c4ccccc43)c2)CC1 [Example 11, 1-(3-(4-(4-Bromobenzoyl)piperazine-1-carbonyl)benzyl)quinazoline-2,4(1H,3H)-dione] | 618 | 214 | 1840 |
| O=C(c1cccc(Cn2c(=O)[nH]c(=O)c3ccccc32)c1)N1CCN(C(=O)C2CC2)CC1 [Example 15, 1-(3-(4-(Cyclopropylcarbonyl)piperazine-1-carbonyl)benzyl)quinazoline-2,4(1H,3H)-dione] | 666 | 803 | > 10000 |
| O=C(c1cccc(Cn2c(=O)[nH]c(=O)c3ccccc32)c1)N1CCN(c2cnccn2)CC1 [Example 20, 1-(3-(4-(Pyrazin-2-yl)piperazine-1-carbonyl)benzyl)quinazoline-2,4(1H,3H)-dione] | 391 | 139 | 4940 |
| O=C(c1cccc(Cn2c(=O)[nH]c(=O)c3ccccc32)c1)N1CCN(C(=O)C2CCCCC2)CC1 [Example 26, 1-(3-(4-(Cyclohexylcarbonyl)piperazine-1-carbonyl)benzyl)quinazoline-2,4(1H,3H)-dione] | 149 | 20 | 400 |
| O=C(c1cccc(Cn2c(=O)[nH]c(=O)c3ccccc32)c1)N1CCN(c2nsc3ccccc23)CC1 [Example 27, 1-(3-(4-(Benzo[d]isothiazol-3-yl)piperazine-1-carbonyl)benzyl)quinazoline-2,4(1H,3H)-dione] | 83 | 51 | 281 |
| O=C(c1cccc(Cn2c(=O)[nH]c(=O)c3ccccc32)c1)N1CCN(C(=O)C2CCC2)CC1 [Example 30, 1-(3-(4-(Cyclobutylcarbonyl)piperazine-1-carbonyl)benzyl)quinazoline-2,4(1H,3H)-dione] | 119 | 39 | 1780 |
| O=C(c1cc(Cn2c(=O)[nH]c(=O)c3ccccc32)ccc1F)N1CCN(C(=O)C2CC2)CC1 [Example 40, 1-(3-(4-(Cyclopropylcarbonyl)piperazine-1-carbonyl)-4-fluorobenzyl)quinazoline-2,4(1H,3H)-dione] | 182 | 29 | 1740 |
| O=C(c1cc(Cn2c(=O)[nH]c(=O)c3ccccc32)ccc1F)N1CCN(c2cnccn2)CC1 [Example 42, 1-(4-Fluoro-3-(4-(pyrazin-2-yl)piperazine-1-carbonyl)benzyl)quinazoline-2,4(1H,3H)-dione] | 78 | 11 | 2540 |
| O=C(c1cc(Cn2c(=O)[nH]c(=O)c3ccccc32)ccc1Cl)N1CCN(c2ncccn2)CC1 [Example 65, 1-(4-Chloro-3-(4-(pyrimidin-2-yl)piperazine-1-carbonyl)benzyl)quinazoline-2,4(1H,3H)-dione] | 417 | 373 | 3190 |
| O=C(c1cccc(Cn2c(=O)[nH]c(=O)c3ccccc32)n1)N1CCN(C(=O)C2CCCC2)CC1 [Example 69, 1-((2-(4-(Cyclopentylcarbonyl)piperazine-1-carbonyl)pyridin-6-yl)methyl)quinazoline-2,4(1H,3H)-dione] | 352 | 76 | 1980 |
| O=C(c1cccc(Cn2c(=O)[nH]c(=O)c3ccccc32)n1)N1CCN(c2ccccn2)CC1 [Example 70, 1-((2-(4-(Pyridin-2-yl)piperazine-1-carbonyl)pyridin-6-yl)methyl)quinazoline-2,4(1H,3H)-dione] | 136 | 34 | 339 |

These reach a lower IC50 [1]. Values come first.

| IC50 [1] [nM] | EC50 [2] [nM] | IC50 [3] [nM] | SMILES |
| --- | --- | --- | --- |
| 8.2 | 4 | 160 | O=C(c1cc(Cn2c(=O)[nH]c(=O)c3ccccc32)ccc1F)N1CCN(C(=O)C2CCCC2)CC1 [Example 23, 1-(3-(4-(Cyclopentylcarbonyl)piperazine-1-carbonyl)-4-fluorobenzyl)quinazoline-2,4(1H,3H)-dione] |
| 26 | 20 | 735 | O=C(c1cc(Cn2c(=O)[nH]c(=O)c3ccccc32)ccc1F)N1CCN(c2ccccn2)CC1 [Example 24, 1-(4-Fluoro-3-(4-(pyridin-2-yl)piperazine-1-carbonyl)benzyl)quinazoline-2,4(1H,3H)-dione] |
| 11 | 2.2 | 208 | O=C(c1cc(Cn2c(=O)[nH]c(=O)c3ccccc32)ccc1F)N1CCN(C(=O)C2CCCCC2)CC1 [Example 41, 1-(3-(4-(Cyclohexylcarbonyl)piperazine-1-carbonyl)-4-fluorobenzyl)quinazoline-2,4(1H,3H)-dione] |
| 51 | 18 | 974 | O=C(c1cc(Cn2c(=O)[nH]c(=O)c3ccccc32)ccc1F)N1CCN(c2nsc3ccccc23)CC1 [Example 43, 1-(3-(4-(Benzo[d]isothiazol-3-yl)piperazine-1-carbonyl)-4-fluorobenzyl)quinazoline-2,4(1H,3H)-dione] |
| 34 | 11 | 668 | O=C(c1ccccc1)N1CCN(C(=O)c2cc(Cn3c(=O)[nH]c(=O)c4ccccc43)ccc2F)CC1 [Example 45, 1-(3-(4-Benzoylpiperazine-1-carbonyl)-4-fluorobenzyl)quinazoline-2,4(1H,3H)-dione] |
| 21 | 6.6 | 446 | O=C(c1cccs1)N1CCN(C(=O)c2cc(Cn3c(=O)[nH]c(=O)c4ccccc43)ccc2F)CC1 [Example 46, 1-(4-Fluoro-3-(4-(thiophene-2-carbonyl)piperazine-1-carbonyl)benzyl)quinazoline-2,4(1H,3H)-dione] |
| 56 | 8.2 | 168 | O=C(c1ccc(F)c(Cn2c(=O)[nH]c(=O)c3ccccc32)c1)N1CCN(C(=O)C2CCCC2)CC1 [Example 48, 1-(3-(4-(Cyclopentylcarbonyl)piperazine-1-carbonyl)-6-fluorobenzyl)quinazoline-2,4(1H,3H)-dione] |
| 32 | 10 | 421 | O=C(c1ccc(F)c(Cn2c(=O)[nH]c(=O)c3ccccc32)c1)N1CCN(C(=O)C2CCCCC2)CC1 [Example 49, 1-(3-(4-(Cyclohexylcarbonyl)piperazine-1-carbonyl)-6-fluorobenzyl)quinazoline-2,4(1H,3H)-dione] |
| 37 | 13 | 173 | O=C(c1ccc(F)c(Cn2c(=O)[nH]c(=O)c3ccccc32)c1)N1CCN(c2ncccn2)CC1 [Example 50, 1-(6-Fluoro-3-(4-(pyrimidin-2-yl)piperazine-1-carbonyl)benzyl)quinazoline-2,4(1H,3H)-dione] |
| 33 | 20 | 402 | O=C(c1ccc(F)c(Cn2c(=O)[nH]c(=O)c3ccccc32)c1)N1CCN(c2ccccn2)CC1 [Example 51, 1-(6-Fluoro-3-(4-(pyridin-2-yl)piperazine-1-carbonyl)benzyl)quinazoline-2,4(1H,3H)-dione] |
| 30 | 16 | 1180 | O=C(c1ccc(Cl)c(Cn2c(=O)[nH]c(=O)c3ccccc32)c1)N1CCN(c2ncccn2)CC1 [Example 56, 1-(6-Chloro-3-(4-(pyrimidin-2-yl)piperazine-1-carbonyl)benzyl)quinazoline-2,4(1H,3H)-dione] |
| 7.8 | – | 472 | O=C(c1cc(Cn2c(=O)[nH]c(=O)c3cc(F)ccc32)ccc1F)N1CCN(c2nccs2)CC1 [Example 188, 6-Fluoro-1-(4-fluoro-3-(4-(thiazol-2-yl)piperazine-1-carbonyl)benzyl)quinazoline-2,4(1H,3H)-dione] |
| 21 | – | 1380 | O=C(c1cc(Cn2c(=O)[nH]c(=O)c3ccccc32)ccc1F)N1CCN(c2nccs2)CC1 [Example 190, 1-(4-Fluoro-3-(4-(thiazol-2-yl)piperazine-1-carbonyl)benzyl)quinazoline-2,4(1H,3H)-dione] |
